Reference: ChEMBL document CHEMBL1201862, “PubChem BioAssay data set” (2004)
Where a name gives a salt, the structure may show the parent alone.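 In this assay, cells in 96-well plates receive the compound at five concentrations for 48 hours. Endpoints are linearly interpolated between the surrounding concentrations. The concentration for 50% growth inhibition is given as GI50.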 Active and inactive are the calls of the source. Rule as the data show it: active = GI50 up to about 1.1 µM and inactive = higher.

Legend:
Experiment in all cases: NCI anticancer screen, dose series, 48 h
CAKI-1 = tested on: CAKI-1
MCF7 = tested on: MCF7
SK-MEL-28 = tested on: SK-MEL-28
NCI-H522 = tested on: NCI-H522
M14 = tested on: M14
RPMI-8226 = tested on: RPMI-8226
OVCAR-8 = tested on: OVCAR-8
SW-620 = tested on: SW-620
Hs-578T = tested on: Hs-578T
MOLT-4 = tested on: MOLT-4
HCT-116 = tested on: HCT-116
KM12 = tested on: KM12
A549 = tested on: A549
SK-MEL-2 = tested on: SK-MEL-2
EKVX = tested on: EKVX
NCI-H226 = tested on: NCI-H226
UACC-257 = tested on: UACC-257
T47D = tested on: T47D
TK-10 = tested on: TK-10
OVCAR-5 = tested on: OVCAR-5

Compound	GI50 (CAKI-1)	GI50 (MCF7)	GI50 (SK-MEL-28)	GI50 (NCI-H522)	GI50 (M14)	GI50 (RPMI-8226)	GI50 (OVCAR-8)	GI50 (SW-620)	GI50 (Hs-578T)	GI50 (MOLT-4)	GI50 (HCT-116)	GI50 (KM12)	GI50 (A549)	GI50 (SK-MEL-2)	GI50 (EKVX)	GI50 (NCI-H226)	GI50 (UACC-257)	GI50 (T47D)	GI50 (TK-10)	GI50 (OVCAR-5)
Cc1nn(C(=O)c2ccc(Cl)cc2)c2c1C(c1ccccc1)SC(=N)N2 (centres undefined)	> 10 µM (inactive)	> 10 µM (inactive)	> 10 µM (inactive)	> 10 µM (inactive)	> 10 µM (inactive)	> 10 µM (inactive)	> 10 µM (inactive)	> 10 µM (inactive)	> 10 µM (inactive)	> 10 µM (inactive)	> 10 µM (inactive)	> 10 µM (inactive)	> 10 µM (inactive)	> 10 µM (inactive)	> 10 µM (inactive)	> 10 µM (inactive)	> 10 µM (inactive)	> 10 µM (inactive)	> 10 µM (inactive)	> 10 µM (inactive)
CC[C@@H]1C(=O)OC[C@@H]1Cc1cncn1C [PILOCARPINE HYDROCHLORIDE]	> 100 µM (inactive)	> 100 µM (inactive)	> 100 µM (inactive)	> 100 µM (inactive)	> 100 µM (inactive)	> 100 µM (inactive)	> 100 µM (inactive)	> 100 µM (inactive)	> 100 µM (inactive)	> 100 µM (inactive)	> 100 µM (inactive)	> 100 µM (inactive)	> 100 µM (inactive)	> 100 µM (inactive)	> 100 µM (inactive)	> 100 µM (inactive)	> 100 µM (inactive)	> 100 µM (inactive)	> 100 µM (inactive)	> 100 µM (inactive)
O=C([O-])C(O)C(O)C(=O)O.[K+] (centres undefined) [POTASSIUM HYDROGENTARTRATE]	> 100 µM (inactive)	> 100 µM (inactive)	> 100 µM (inactive)	> 100 µM (inactive)	> 100 µM (inactive)	> 100 µM (inactive)	> 100 µM (inactive)	> 100 µM (inactive)	> 100 µM (inactive)	> 100 µM (inactive)	> 100 µM (inactive)	> 100 µM (inactive)	> 100 µM (inactive)	> 100 µM (inactive)	> 100 µM (inactive)	> 100 µM (inactive)	> 100 µM (inactive)	> 100 µM (inactive)	> 100 µM (inactive)	> 100 µM (inactive)
COC1/C=C\C=C(/C)C(=O)NC2=CC(=O)C(NCCCl)=C(CC(C)CC(OC)C(O)C(C)/C=C(/C)C1OC(N)=O)C2=O (centres undefined)	0.33 µM (active)	0.0333 µM (active)	0.0373 µM (active)	0.0219 µM (active)	0.0724 µM (active)	0.0977 µM (active)	0.115 µM (active)	0.0161 µM (active)	4.89 µM (inactive)	0.052 µM (active)	0.0489 µM (active)	0.125 µM (active)	0.53 µM (active)	0.147 µM (active)	0.592 µM (active)	0.729 µM (active)	0.0363 µM (active)	2.36 µM (inactive)	1.77 µM (inactive)	0.594 µM (active)
CC1=C(O)C(O)=C(C2=C(O)C(O)=C(C)C(=O)C2=O)C(=O)C1=O	40.7 µM (inactive)	45.3 µM (inactive)	29.2 µM (inactive)	29.3 µM (inactive)	38.5 µM (inactive)	34.3 µM (inactive)	47.4 µM (inactive)	68.9 µM (inactive)	36.7 µM (inactive)	98.2 µM (inactive)	46.7 µM (inactive)	38.5 µM (inactive)	–	–	> 100 µM (inactive)	35.2 µM (inactive)	35.6 µM (inactive)	37.5 µM (inactive)	–	41.6 µM (inactive)
COC(=O)/C(C)=N/N=C(\S)SC	35.2 µM (inactive)	35.4 µM (inactive)	44.5 µM (inactive)	22.7 µM (inactive)	23.2 µM (inactive)	66.4 µM (inactive)	36.4 µM (inactive)	44.3 µM (inactive)	28.8 µM (inactive)	55.1 µM (inactive)	31.6 µM (inactive)	52.5 µM (inactive)	–	31 µM (inactive)	> 100 µM (inactive)	> 100 µM (inactive)	50.9 µM (inactive)	18.1 µM (inactive)	95.5 µM (inactive)	80.2 µM (inactive)
CCCCOc1ccc(S(=O)(=O)N/C(N)=N/c2ccc(Cl)cc2)cc1	–	12.4 µM (inactive)	16.7 µM (inactive)	10.5 µM (inactive)	18.7 µM (inactive)	17.2 µM (inactive)	16.1 µM (inactive)	15.5 µM (inactive)	20.1 µM (inactive)	11.2 µM (inactive)	15.2 µM (inactive)	17.9 µM (inactive)	19.5 µM (inactive)	17.1 µM (inactive)	10.3 µM (inactive)	19.9 µM (inactive)	14.1 µM (inactive)	10.7 µM (inactive)	14.9 µM (inactive)	17.7 µM (inactive)
N#C[C@H](c1nc2ccccc2[nH]1)c1nc2ccccc2nc1Cl	4.68 µM (inactive)	> 26 µM (inactive)	20.2 µM (inactive)	2.85 µM (inactive)	> 23.4 µM (inactive)	8.93 µM (inactive)	12.6 µM (inactive)	6.08 µM (inactive)	2.05 µM (inactive)	4.04 µM (inactive)	6.25 µM (inactive)	4.35 µM (inactive)	> 54.5 µM (inactive)	–	9.68 µM (inactive)	22.1 µM (inactive)	> 38.7 µM (inactive)	3.96 µM (inactive)	14 µM (inactive)	> 44.3 µM (inactive)
CCCN(CCC)C(=O)c1c(Cl)c2cccnc2n2c(C)cnc12	22.9 µM (inactive)	47.9 µM (inactive)	> 100 µM (inactive)	> 100 µM (inactive)	61.2 µM (inactive)	39.5 µM (inactive)	> 100 µM (inactive)	23.2 µM (inactive)	> 100 µM (inactive)	33.3 µM (inactive)	48.3 µM (inactive)	51.1 µM (inactive)	48.8 µM (inactive)	–	> 100 µM (inactive)	> 100 µM (inactive)	95.3 µM (inactive)	11.7 µM (inactive)	> 100 µM (inactive)	> 100 µM (inactive)
CC#CC#C/C=C1/O[C@]2(CCC(OC(C)=O)CO2)[C@@H]2O[C@H]12 (some centres undefined)	25.5 µM (inactive)	26.5 µM (inactive)	–	15.3 µM (inactive)	18.4 µM (inactive)	27.2 µM (inactive)	32.8 µM (inactive)	25.7 µM (inactive)	40.3 µM (inactive)	17 µM (inactive)	17.8 µM (inactive)	19.9 µM (inactive)	29.6 µM (inactive)	16.8 µM (inactive)	31.5 µM (inactive)	20.4 µM (inactive)	21.6 µM (inactive)	15.3 µM (inactive)	39.5 µM (inactive)	30.5 µM (inactive)
O=C1CCC2(CC1CC[S+]([O-])c1ccccc1)OCCO2 (centres undefined)	> 100 µM (inactive)	> 100 µM (inactive)	> 100 µM (inactive)	> 100 µM (inactive)	> 100 µM (inactive)	> 100 µM (inactive)	> 100 µM (inactive)	> 100 µM (inactive)	> 100 µM (inactive)	> 100 µM (inactive)	–	> 100 µM (inactive)	> 100 µM (inactive)	> 100 µM (inactive)	> 100 µM (inactive)	> 100 µM (inactive)	> 100 µM (inactive)	> 100 µM (inactive)	> 100 µM (inactive)	> 100 µM (inactive)
NC1=CN2c3ccccc3N(CC(=O)N3CCOCC3)C2C=C1 (centres undefined)	> 100 µM (inactive)	> 100 µM (inactive)	> 100 µM (inactive)	> 100 µM (inactive)	> 100 µM (inactive)	–	> 100 µM (inactive)	> 100 µM (inactive)	> 100 µM (inactive)	> 100 µM (inactive)	> 100 µM (inactive)	> 100 µM (inactive)	> 100 µM (inactive)	> 100 µM (inactive)	> 100 µM (inactive)	> 100 µM (inactive)	> 100 µM (inactive)	> 100 µM (inactive)	> 100 µM (inactive)	> 100 µM (inactive)
CC1C2CCC3C(O)C2(CC(O)C2(O)C1CC(O)C2(C)C)CC3(C)O (centres undefined)	> 100 µM (inactive)	> 100 µM (inactive)	> 100 µM (inactive)	> 100 µM (inactive)	> 100 µM (inactive)	–	> 100 µM (inactive)	> 100 µM (inactive)	> 100 µM (inactive)	> 10 µM (inactive)	> 100 µM (inactive)	> 100 µM (inactive)	> 100 µM (inactive)	> 100 µM (inactive)	> 100 µM (inactive)	> 100 µM (inactive)	> 100 µM (inactive)	> 100 µM (inactive)	> 100 µM (inactive)	> 100 µM (inactive)
COCOc1cc(OC)ccc1C=O	86.9 µM (inactive)	24.5 µM (inactive)	> 100 µM (inactive)	27.6 µM (inactive)	35.2 µM (inactive)	–	41.3 µM (inactive)	32.8 µM (inactive)	14.8 µM (inactive)	37.2 µM (inactive)	33.7 µM (inactive)	34 µM (inactive)	> 100 µM (inactive)	34 µM (inactive)	52.1 µM (inactive)	40.8 µM (inactive)	28.6 µM (inactive)	44.7 µM (inactive)	31.6 µM (inactive)	> 100 µM (inactive)
COC(NC(=O)Nc1ccc(C)cc1)(C(F)(F)F)C(F)(F)F	–	41.3 µM (inactive)	42.2 µM (inactive)	22 µM (inactive)	29.5 µM (inactive)	24.6 µM (inactive)	25.2 µM (inactive)	20.4 µM (inactive)	25 µM (inactive)	9.08 µM (inactive)	29.3 µM (inactive)	34.7 µM (inactive)	34.8 µM (inactive)	–	–	55.8 µM (inactive)	–	18.7 µM (inactive)	42.8 µM (inactive)	34.9 µM (inactive)
